# According to ChEMBL document CHEMBL5356958, “Discovery of a Highly Potent and Selective MYOF Inhibitor with Improved Water Solubility for the Treatment of Gastric Cancer” (J Med Chem, 2023):
# pIC50, pKd: −log10 of the molar value. Active and inactive are the calls of the source. No cut-off for these calls is given here.
# Experiments:
# MKN-45 [1] = assay: Inhibition of epithelial mesenchymal transition in human MKN-45 cells assessed as downregulation in N-cadherin level by Western blotting analysis; assay type: functional, cell-based
# MKN-45 [2] = assay: Inhibition of human MKN-45 cells colony formation incubated for 10 days by crystal violet staining based assay; assay type: functional, cell-based; conditions: dose 50-100 nM, time 10.0 day
# hERG (KCNH2) = hERG (KCNH2) (Homo sapiens, UniProt Q12809); assay: Inhibition of human ERG at 40 uM relative to control; assay type: toxicity
# MKN-45 [3] = assay: Induction of apoptosis in human MKN-45 cells assessed as early apoptotic cells at 400 nM incubated for 48 hrs by Annexin V-FITC/PI staining based flow cytometry analysis (reference value: 0.5%); assay type: functional
# [4] = Toxicity in BALB/c mouse assessed as change in spleen morphology at 15 to 30 mg/kg, ip measured every 3 days for 21 days by HE staining based assay; assay type: organism-based; conditions: in vivo, 504 h, dose 15-30 mg/kg, time 21 day
# Cytochrome P450 3A4 = Cytochrome P450 3A4 (Homo sapiens, UniProt P08684); assay: Inhibition of CYP3A4 in human liver microsomes; assay type: ADME, Microsome
# Sequence of Cytochrome P450 3A4 (P08684 whole entry): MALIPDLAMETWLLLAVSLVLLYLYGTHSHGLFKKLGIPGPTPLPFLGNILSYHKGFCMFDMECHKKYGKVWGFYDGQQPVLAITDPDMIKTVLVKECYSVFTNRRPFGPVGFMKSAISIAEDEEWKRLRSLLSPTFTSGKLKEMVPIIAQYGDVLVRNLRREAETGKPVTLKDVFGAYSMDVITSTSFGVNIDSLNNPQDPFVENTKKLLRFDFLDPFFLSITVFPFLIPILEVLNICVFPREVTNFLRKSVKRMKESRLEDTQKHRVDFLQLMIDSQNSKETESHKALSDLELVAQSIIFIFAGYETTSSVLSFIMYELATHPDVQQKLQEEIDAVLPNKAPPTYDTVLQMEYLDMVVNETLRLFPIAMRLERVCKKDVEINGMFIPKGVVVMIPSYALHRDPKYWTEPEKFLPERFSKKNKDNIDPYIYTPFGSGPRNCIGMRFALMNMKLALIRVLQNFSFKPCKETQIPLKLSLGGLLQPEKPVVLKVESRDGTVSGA
# [5] = Volume of distribution at steady state in ICR mouse at 1 mg/kg, iv; assay type: ADME, organism-based; conditions: in vivo, read-out: Vdss
# [6] = Oral bioavailability in ICR mouse at 10 mg/kg; assay type: ADME, organism-based; conditions: in vivo
# MGC-803 = assay: Antiproliferative activity against human MGC-803 cells incubated for 48 hrs by SRB assay; assay type: functional, cell-based; conditions: MGC-803, 48 h
# SGC-7901 = assay: Antiproliferative activity against human SGC-7901 cells incubated for 48 hrs by SRB assay; assay type: functional, cell-based; conditions: SGC-7901, 48 h
# MFC = assay: Antiproliferative activity against MFC cells incubated for 48 hrs by SRB assay; assay type: functional, cell-based; conditions: Mus musculus
# [7] = Cmax in ICR mouse at 1 mg/kg, iv; assay type: ADME, organism-based; parameters: dose 1 mg/kg, route iv; conditions: in vivo
# MKN-45 [8] = assay: Induction of apoptosis in human MKN-45 cells assessed as early apoptotic cells at 100 nM incubated for 48 hrs by Annexin V-FITC/PI staining based flow cytometry analysis (reference value: 0.5%); assay type: functional
# Cytochrome P450 2D6 = Cytochrome P450 2D6 (Homo sapiens, UniProt P10635); assay: Inhibition of CYP2D6 in human liver microsomes; assay type: ADME, Microsome
# Sequence of Cytochrome P450 2D6 (P10635 whole entry): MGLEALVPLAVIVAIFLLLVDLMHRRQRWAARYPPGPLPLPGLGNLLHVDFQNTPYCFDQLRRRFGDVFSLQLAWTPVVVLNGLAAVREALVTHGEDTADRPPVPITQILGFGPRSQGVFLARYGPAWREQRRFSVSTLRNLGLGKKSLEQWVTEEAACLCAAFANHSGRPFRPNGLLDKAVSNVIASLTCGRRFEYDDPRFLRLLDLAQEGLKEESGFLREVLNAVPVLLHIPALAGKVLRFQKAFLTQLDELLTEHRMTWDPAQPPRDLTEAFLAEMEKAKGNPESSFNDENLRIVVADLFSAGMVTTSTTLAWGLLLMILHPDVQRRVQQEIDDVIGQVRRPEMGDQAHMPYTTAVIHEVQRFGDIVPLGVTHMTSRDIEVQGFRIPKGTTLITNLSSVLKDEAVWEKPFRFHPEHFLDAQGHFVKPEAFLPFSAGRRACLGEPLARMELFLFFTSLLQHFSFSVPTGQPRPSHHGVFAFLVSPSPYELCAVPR
# [9] = Aqueous solubility of compound in PBS at pH 7.4; assay type: physicochemical
# DU-145 = assay: Antiproliferative activity against human DU-145 cells incubated for 48 hrs by SRB assay; assay type: functional, cell-based; conditions: DU-145, 48 h
# [10] = AUC(0 to t) in ICR mouse at 1 mg/kg, iv; assay type: ADME, organism-based; parameters: dose 1 mg/kg, route iv; conditions: in vivo
# [11] = Antiproliferative activity against HAF cells incubated for 48 hrs by SRB assay; assay type: functional, cell-based; conditions: Homo sapiens
# MKN-45 [12] = assay: Antiproliferative activity against MYOF knocked down human MKN-45 cells incubated for 48 hrs by SRB assay; assay type: functional, cell-based
# [13] = AUC(0 to t) in ICR mouse at 10 mg/kg, po; assay type: ADME, organism-based; parameters: dose 10 mg/kg, route po; conditions: in vivo
# [14] = Clearance in ICR mouse at 1 mg/kg, iv; assay type: ADME, organism-based; conditions: in vivo
# MKN-45 [15] = assay: Induction of apoptosis in human MKN-45 cells assessed as early apoptotic cells at 800 nM incubated for 48 hrs by Annexin V-FITC/PI staining based flow cytometry analysis (reference value: 0.5%); assay type: functional
# ES-2 = assay: Antiproliferative activity against human ES2 cells incubated for 48 hrs by SRB assay; assay type: functional, cell-based; conditions: ES-2, 48 h
# CWR22R = assay: Antiproliferative activity against human 22Rv1 cells incubated for 48 hrs by SRB assay; assay type: functional, cell-based; conditions: 22Rv1, 48 h
# [16] = target: Serine/threonine-protein kinase AKT (Homo sapiens) (UniProt P31751+Q9Y243+P31749); assay: Inhibition of AKT phosphorylation in human MKN-45 cells by Western blot analysis; assay type: cell-based
# Sequence of Serine/threonine-protein kinase AKT (Homo sapiens) (P31749 whole entry, looked up): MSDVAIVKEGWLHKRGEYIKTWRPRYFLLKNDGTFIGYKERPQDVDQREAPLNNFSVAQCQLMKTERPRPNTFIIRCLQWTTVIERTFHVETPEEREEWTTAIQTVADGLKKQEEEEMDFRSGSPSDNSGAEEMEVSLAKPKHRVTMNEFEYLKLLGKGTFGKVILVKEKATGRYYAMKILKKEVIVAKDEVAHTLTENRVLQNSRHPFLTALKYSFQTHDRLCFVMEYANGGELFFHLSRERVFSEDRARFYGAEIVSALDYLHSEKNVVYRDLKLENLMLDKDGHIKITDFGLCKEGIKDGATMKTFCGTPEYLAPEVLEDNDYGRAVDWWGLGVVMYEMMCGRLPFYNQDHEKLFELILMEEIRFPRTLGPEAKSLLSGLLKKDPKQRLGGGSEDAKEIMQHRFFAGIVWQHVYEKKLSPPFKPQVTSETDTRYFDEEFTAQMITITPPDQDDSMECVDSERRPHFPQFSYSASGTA
# Sequence of Serine/threonine-protein kinase AKT (Homo sapiens) (P31751 whole entry, looked up): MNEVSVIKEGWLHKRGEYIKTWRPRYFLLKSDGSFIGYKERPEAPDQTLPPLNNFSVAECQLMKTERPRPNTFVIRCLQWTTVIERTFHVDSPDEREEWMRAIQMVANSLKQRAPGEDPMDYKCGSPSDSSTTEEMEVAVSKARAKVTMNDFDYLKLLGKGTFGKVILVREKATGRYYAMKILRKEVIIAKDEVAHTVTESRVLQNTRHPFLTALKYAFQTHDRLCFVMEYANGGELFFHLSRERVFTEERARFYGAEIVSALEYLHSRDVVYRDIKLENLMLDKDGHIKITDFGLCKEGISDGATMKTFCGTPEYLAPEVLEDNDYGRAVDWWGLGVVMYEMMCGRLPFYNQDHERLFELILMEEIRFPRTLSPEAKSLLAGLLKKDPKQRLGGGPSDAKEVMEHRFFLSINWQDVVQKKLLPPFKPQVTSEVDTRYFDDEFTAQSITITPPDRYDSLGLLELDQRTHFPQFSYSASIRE
# Sequence of Serine/threonine-protein kinase AKT (Homo sapiens) (Q9Y243 whole entry, looked up): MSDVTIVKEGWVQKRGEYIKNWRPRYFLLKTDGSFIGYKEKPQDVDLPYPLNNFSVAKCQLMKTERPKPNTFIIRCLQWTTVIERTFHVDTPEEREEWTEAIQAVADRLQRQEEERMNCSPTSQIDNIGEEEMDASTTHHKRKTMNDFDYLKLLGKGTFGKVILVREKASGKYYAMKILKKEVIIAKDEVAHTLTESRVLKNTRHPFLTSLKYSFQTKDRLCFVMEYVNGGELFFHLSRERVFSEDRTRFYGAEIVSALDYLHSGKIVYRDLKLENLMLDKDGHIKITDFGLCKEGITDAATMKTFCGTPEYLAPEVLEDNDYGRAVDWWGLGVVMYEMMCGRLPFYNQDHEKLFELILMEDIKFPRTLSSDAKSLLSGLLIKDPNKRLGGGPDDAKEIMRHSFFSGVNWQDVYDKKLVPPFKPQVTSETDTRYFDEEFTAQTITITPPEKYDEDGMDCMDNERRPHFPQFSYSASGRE
# Cytochrome P450 2C9 = Cytochrome P450 2C9 (Homo sapiens, UniProt P11712); assay: Inhibition of CYP2C9 in human liver microsomes; assay type: ADME, Microsome
# SK-HEP1 = assay: Antiproliferative activity against human SK-HEP1 cells incubated for 48 hrs by SRB assay; assay type: functional, cell-based; conditions: SK-HEP1, 48 h
# [17] = AUC(0 to infinity) in ICR mouse at 1 mg/kg, iv; assay type: ADME, organism-based; parameters: dose 1 mg/kg, route iv; conditions: in vivo
# [18] = Half life in ICR mouse at 1 mg/kg, iv; assay type: ADME, organism-based; conditions: in vivo
# Myoferlin = Myoferlin (Homo sapiens, UniProt Q9NZM1); assay: Binding affinity to MYOF C2D (unknown origin) expressed in Escherichia coli BL21(DE3) by SPR analysis
# Sequence of Myoferlin (Q9NZM1 whole entry): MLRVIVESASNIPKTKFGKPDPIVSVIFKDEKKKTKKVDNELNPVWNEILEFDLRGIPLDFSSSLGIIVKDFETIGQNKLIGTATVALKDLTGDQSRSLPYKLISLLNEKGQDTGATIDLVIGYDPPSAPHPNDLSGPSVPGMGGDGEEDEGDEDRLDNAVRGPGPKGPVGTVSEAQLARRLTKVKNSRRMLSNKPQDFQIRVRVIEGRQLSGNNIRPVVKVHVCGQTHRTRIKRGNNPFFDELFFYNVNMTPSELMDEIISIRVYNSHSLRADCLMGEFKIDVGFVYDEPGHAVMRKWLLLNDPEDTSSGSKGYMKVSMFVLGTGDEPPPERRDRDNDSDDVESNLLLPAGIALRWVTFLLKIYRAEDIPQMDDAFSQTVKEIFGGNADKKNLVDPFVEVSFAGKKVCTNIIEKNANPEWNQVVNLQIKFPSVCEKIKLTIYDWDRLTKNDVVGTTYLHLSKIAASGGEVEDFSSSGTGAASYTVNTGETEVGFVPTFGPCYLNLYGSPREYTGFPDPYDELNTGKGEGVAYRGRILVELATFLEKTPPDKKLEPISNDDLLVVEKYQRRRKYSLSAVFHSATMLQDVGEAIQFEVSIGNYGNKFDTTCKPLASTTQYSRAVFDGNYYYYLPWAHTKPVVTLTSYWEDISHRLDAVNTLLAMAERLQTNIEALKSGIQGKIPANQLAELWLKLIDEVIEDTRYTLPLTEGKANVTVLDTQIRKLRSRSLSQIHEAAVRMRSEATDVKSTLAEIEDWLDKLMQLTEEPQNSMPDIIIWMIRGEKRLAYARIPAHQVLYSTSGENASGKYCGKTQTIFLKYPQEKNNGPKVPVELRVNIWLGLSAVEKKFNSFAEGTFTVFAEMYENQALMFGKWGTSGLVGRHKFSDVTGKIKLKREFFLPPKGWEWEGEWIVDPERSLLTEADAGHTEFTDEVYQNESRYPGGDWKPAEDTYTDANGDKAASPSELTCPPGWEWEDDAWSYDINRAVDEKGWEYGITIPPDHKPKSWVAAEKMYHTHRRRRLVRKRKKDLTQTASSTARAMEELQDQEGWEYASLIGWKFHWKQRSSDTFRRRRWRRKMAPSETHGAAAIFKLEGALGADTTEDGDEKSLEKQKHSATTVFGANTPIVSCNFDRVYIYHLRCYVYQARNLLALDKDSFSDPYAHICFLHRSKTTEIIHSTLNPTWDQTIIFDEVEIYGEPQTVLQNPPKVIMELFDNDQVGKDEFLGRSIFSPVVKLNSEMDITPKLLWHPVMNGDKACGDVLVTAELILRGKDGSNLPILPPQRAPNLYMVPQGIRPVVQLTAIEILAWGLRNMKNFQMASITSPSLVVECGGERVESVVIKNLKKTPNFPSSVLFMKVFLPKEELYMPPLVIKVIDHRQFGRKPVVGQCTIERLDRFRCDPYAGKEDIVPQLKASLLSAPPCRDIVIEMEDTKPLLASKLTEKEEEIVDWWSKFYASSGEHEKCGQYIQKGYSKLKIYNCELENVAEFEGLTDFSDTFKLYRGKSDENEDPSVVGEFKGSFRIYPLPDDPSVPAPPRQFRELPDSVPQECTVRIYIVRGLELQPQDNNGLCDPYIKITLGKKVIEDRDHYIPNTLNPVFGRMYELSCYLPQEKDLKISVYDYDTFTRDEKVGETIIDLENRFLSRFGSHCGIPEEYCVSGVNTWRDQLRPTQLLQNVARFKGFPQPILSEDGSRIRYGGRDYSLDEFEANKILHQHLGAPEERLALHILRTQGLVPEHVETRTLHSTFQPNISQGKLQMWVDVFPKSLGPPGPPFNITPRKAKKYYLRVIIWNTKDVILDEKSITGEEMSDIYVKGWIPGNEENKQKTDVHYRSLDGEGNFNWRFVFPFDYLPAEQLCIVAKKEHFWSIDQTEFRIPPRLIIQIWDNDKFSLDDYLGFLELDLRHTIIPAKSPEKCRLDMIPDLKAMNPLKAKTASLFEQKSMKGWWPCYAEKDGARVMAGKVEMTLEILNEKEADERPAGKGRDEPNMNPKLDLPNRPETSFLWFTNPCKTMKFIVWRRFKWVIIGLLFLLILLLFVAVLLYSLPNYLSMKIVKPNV
# [19] = Toxicity in BALB/c mouse assessed as change in body weight at 15 to 30 mg/kg, ip measured every 3 days for 21 days; assay type: organism-based; conditions: in vivo, 504 h, dose 15-30 mg/kg, time 21 day
# [20] = target: Voltage-gated inwardly rectifying potassium channel KCNH2 (Homo sapiens, UniProt Q12809); assay: Inhibition of human ERG; assay type: toxicity
# [21] = Half life in ICR mouse at 10 mg/kg, po; assay type: ADME, organism-based; conditions: in vivo
# [22] = AUC(0 to infinity) in ICR mouse at 10 mg/kg, po; assay type: ADME, organism-based; parameters: dose 10 mg/kg, route po; conditions: in vivo
# Cytochrome P450 2C19 = Cytochrome P450 2C19 (Homo sapiens, UniProt P33261); assay: Inhibition of CYP2C19 in human liver microsomes; assay type: ADME, Microsome
# Sequence of Cytochrome P450 2C19 (P33261 whole entry): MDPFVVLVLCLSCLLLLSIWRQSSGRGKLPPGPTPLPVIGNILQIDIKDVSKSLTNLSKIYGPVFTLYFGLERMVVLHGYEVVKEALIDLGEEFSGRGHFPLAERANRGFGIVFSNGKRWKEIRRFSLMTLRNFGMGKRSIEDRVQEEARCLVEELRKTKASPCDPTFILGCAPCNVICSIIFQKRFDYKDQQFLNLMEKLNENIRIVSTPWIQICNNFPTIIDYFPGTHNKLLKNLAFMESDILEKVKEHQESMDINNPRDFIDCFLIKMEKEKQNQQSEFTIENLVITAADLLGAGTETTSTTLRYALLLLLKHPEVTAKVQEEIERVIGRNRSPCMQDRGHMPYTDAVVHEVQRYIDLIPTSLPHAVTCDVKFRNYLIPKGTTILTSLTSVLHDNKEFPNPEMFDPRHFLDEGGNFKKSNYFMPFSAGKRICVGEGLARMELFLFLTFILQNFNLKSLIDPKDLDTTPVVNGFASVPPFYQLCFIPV
# MKN-45 [23] = assay: Induction of apoptosis in human MKN-45 cells assessed as late apoptotic cells at 800 nM incubated for 48 hrs by Annexin V-FITC/PI staining based flow cytometry analysis (reference value: 2.6%); assay type: functional
# MKN-45 [24] = assay: Antitumor activity against human MKN-45 cells xenografted in BALB/c mouse assessed as tumor growth inhibition at 30 mg/kg/day, ip measured every 3 days for 21 days; assay type: functional; conditions: MKN-45, 504 h, time 21 day, read-out: TGI
# BGC-823 = assay: Antiproliferative activity against human BGC-823 cells incubated for 48 hrs by SRB assay; assay type: functional, cell-based; conditions: BGC-823, 48 h
# MKN-45 [25] = assay: Induction of apoptosis in human MKN-45 cells assessed as late apoptotic cells at 100 nM incubated for 48 hrs by Annexin V-FITC/PI staining based flow cytometry analysis (reference value: 2.6%); assay type: functional
# AGS = assay: Antiproliferative activity against human AGS cells incubated for 48 hrs by SRB assay; assay type: functional, cell-based
# [26] = Aqueous solubility of compound in PBS at pH 9; assay type: physicochemical
# [27] = Mean residence time in ICR mouse at 10 mg/kg, po; assay type: ADME, organism-based; conditions: in vivo
# BXPC-3 = assay: Antiproliferative activity against human BXPC-3 cells incubated for 48 hrs by SRB assay; assay type: functional, cell-based; conditions: BXPC-3, 48 h
# MKN-45 [28] = assay: Inhibition of epithelial mesenchymal transition in human MKN-45 cells assessed as downregulation in vimentin level by Western blotting analysis; assay type: functional, cell-based
# [29] = Aqueous solubility of compound in PBS at pH 2; assay type: physicochemical
# [30] = Toxicity in BALB/c mouse assessed as change in lung morphology at 15 to 30 mg/kg, ip measured every 3 days for 21 days by HE staining based assay; assay type: organism-based; conditions: in vivo, 504 h, dose 15-30 mg/kg, time 21 day
# MKN-45 [31] = assay: Antitumor activity against human MKN-45 cells xenografted in BALB/c mouse assessed as tumor growth inhibition at 15 mg/kg/day, ip measured every 3 days for 21 days; assay type: functional; conditions: MKN-45, 504 h, time 21 day, read-out: TGI
smiles,measurement,setting,value
CCc1nc(-c2ccc(OC)cc2)n(-c2cccc(C(=O)NCCCCn3nccn3)c2)n1,inhibition,MKN-45 [1],Dose-Dependent Effect
same,inhibition,MKN-45 [2],Dose-Dependent Effect
same,inhibition at 40 µM,hERG (KCNH2),46.6%
same,Activity,MKN-45 [3],12.6%
same,Activity,[4],Non-Toxic
same,pIC50,Cytochrome P450 3A4,4.45
same,Vd,[5],0.377 L/kg
same,bioavailability,[6],65.5%
same,pIC50,MGC-803,6.80
same,pIC50,SGC-7901,6.36
same,pIC50,MFC,< 5.00
same,Cmax,[7],1910 ng/mL
same,Activity,MKN-45 [8],0.6%
same,pIC50,Cytochrome P450 2D6,< 4.30
same,solubility,[9],272 µM
same,pIC50,DU-145,< 5.00
same,AUC(0-t),[10],751 ng·h/mL
same,pIC50,[11],< 5.00
same,Activity,MKN-45 [12],inactive
same,AUC(0-t),[13],4920 ng·h/mL
same,clearance,[14],22 mL/min/kg
same,Activity,MKN-45 [15],13.4%
same,pIC50,ES-2,6.55
same,pIC50,CWR22R,< 5.00
same,inhibition,[16],Active
same,pIC50,Cytochrome P450 2C9,4.83
same,pIC50,SK-HEP1,6.12
same,AUC(0-inf),[17],762 ng·h/mL
same,half-life,[18],13.2 min
same,pKd,Myoferlin,6.77
same,Activity,[19],Non-Toxic
same,pIC50,[20],< 4.40
same,half-life,[21],38.4 min
same,AUC(0-inf),[22],4940 ng·h/mL
same,pIC50,Cytochrome P450 2C19,4.73
same,Activity,MKN-45 [23],40.6%
same,inhibition in vivo at 30 mg/kg/day,MKN-45 [24],68.5%
same,pIC50,BGC-823,6.54
same,Activity,MKN-45 [25],2.8%
same,pIC50,AGS,6.34
same,solubility,[26],258 µM
same,MRT,[27],40.3 min
same,pIC50,BXPC-3,6.89
same,inhibition,MKN-45 [28],Dose-Dependent Effect
same,solubility,[29],1310 µM
same,Activity,[30],Non-Toxic
same,inhibition in vivo at 15 mg/kg/day,MKN-45 [31],55.1%
